Among the data in PubChem BioAssay AID1159562 (GlaxoSmithKline (GSK), 2015) are IC50 values, retold here.

Each structure is given as a SMILES string. Calls of active or inactive are those of the source. The rule behind the calls is not given here. Some results are limits rather than exact numbers.

By IC50 is commonly meant the point on the concentration scale where inhibition reaches its midpoint.

For the assay, the system named is Trypanosoma brucei growth inhibition, luminescence. Kind of assay: antitrypanosomal activity against T. brucei – luminescence (AID 1159562).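 Note: parasites grew with compound for 24 h before the luminescence read.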
For the molecule `COc1cc(Cl)c(C)cc1NC(=O)c1ccc([N+](=O)[O-])s1`, the IC50 was 10 µM.

Regarding `O=C(Nc1nc(-c2ccc(S(=O)(=O)N3CCOCC3)cc2)cs1)c1ccc([N+](=O)[O-])cc1`, the half-maximal inhibitory concentration (IC50) was 10 µM.

Turning to `CCc1cc(C(=O)Nc2nccn2-c2ccccc2)cs1`, the IC50 is 4 µM.

For the molecule `COc1cccc2sc(CN(C)C(=O)C3CNCCN3c3ccc(F)cc3)c(C)c12` (stereo not given), the half-maximal inhibitory concentration (IC50) was 0.25 µM.

Turning to `Cc1cc(N(C)C)nc2ccc(Cc3cnc(N)nc3N)cc12`, the IC50 is 5 µM.

On to `Cc1cccc(NS(=O)(=O)c2ccc3c(c2)C(=O)c2cc(S(=O)(=O)Nc4cccc(C)c4C)ccc2-3)c1C`, for which the concentration for half-maximal inhibition (IC50) was 10 µM.

Turning to `CCCN(Cc1ccc(OC)c(OC)c1)Cc1cc(=O)c2c(C)cc(C)cc2[nH]1`, the IC50 is > 40 µM (inactive).

Regarding `CC(C)CC(=O)Nc1cc(C2CC2)nn1-c1nc2c(c(=O)[nH]1)CCCC2`, the half-inhibitory concentration (IC50) is 0.2 µM.

Take `N#Cc1cccc(CN2CCC(c3nc(-c4ccc(C(F)(F)F)nc4)no3)CC2)c1`: the IC50 is > 40 µM (inactive).

As to `COc1ccc2ncc(=O)n(CCN3CCC(NCc4ccc(-c5cccs5)cc4)CC3)c2n1`, the IC50 is 6.3 µM.

`CN(C)S(=O)(=O)c1cccc(C(=O)Nc2nc(-c3ccccn3)cs2)c1`: the IC50 is 0.63 µM.

`Cc1nn(-c2nc(N)nc(-c3ccccn3)n2)c(N)c1-c1ccccc1`: the 50% inhibitory concentration (IC50) was 6.3 µM.

For `CCN(Cc1nc2ccc(C(=O)N3CCN(c4ncccn4)CC3)cc2[nH]1)C1CCCc2cccnc21` (stereo not given), the IC50 is 5 µM.

Regarding `Cn1c(CN2CCN(c3ncc(C(F)(F)F)cc3Cl)CC2)nc2ccncc21`, the IC50 was > 40 µM (inactive).

As to `COc1ccccc1-n1c(SCC(=O)Nc2ccc3c(c2)OCO3)nc2c(c1=O)SCC2`, the IC50 was > 40 µM (inactive).

In the case of `CC(C)c1sc(Cl)nc1C(=O)NCCc1nc(C(=O)Nc2ccc3c(c2)OCO3)cs1`, the IC50 was 25 µM.

For `CCc1ccc2nc(NC(=O)c3cc(N4CCOCC4)ccn3)sc2c1`, the IC50 was 1 µM.

For `Cc1ccnc(NS(=O)(=O)c2ccc(NC(=O)c3ccc([N+](=O)[O-])s3)cc2)n1`, the IC50 was 0.4 µM.

With `O=C(NCC1CCCCN1C(=O)c1cccc2ccccc12)c1ccccc1` (stereo not given), the IC50 is 0.4 µM.

With `COc1ccc(C2C3CCCCC3(O)CCN2CC(=O)Nc2ccc(Cl)cc2Cl)cc1` (stereo not given), the half-maximal inhibitory concentration (IC50) is 25 µM.

Regarding `COc1ncc(-c2ccc3nccc(-c4ccncc4)c3c2)cc1NS(=O)(=O)C1CC1`, the half-maximal inhibitory concentration (IC50) is 0.4 µM.

For the molecule `COC(=O)c1ccc(-c2cnc3ccc(NCc4ccccn4)nn23)cc1`, the IC50 was 1 µM.

Regarding `COc1cc(-c2nc(N3CCOCC3)sc2-c2ccnc(NC3CCOCC3)n2)ccc1Cl`, the IC50 was > 40 µM (inactive).

In the case of `N#Cc1ccc(S(=O)(=O)N2CCN(Cc3cccc(-c4ccncc4)c3)CC2)cc1`, the IC50 was 20 µM.

Turning to `Cc1ccc2c(c1)-c1onc(C(=O)N3CCCCC3c3cccnc3)c1CO2` (stereo not given), the IC50 is > 40 µM (inactive).

As for `O=C(CCc1ccc(-c2ccccc2)o1)N1CCN(c2ccc(O)cc2)CC1`, the half-maximal inhibitory concentration (IC50) is 40 µM.

Consider `O=C(COc1nn(-c2ccccc2)c2ncccc12)NCc1ccccc1`, for which the IC50 was > 40 µM (inactive).

For the molecule `O=C(CN(Cc1ccccn1)Cc1ccccn1)NCc1ccc(-c2csnn2)cc1`, the half-maximal inhibitory concentration (IC50) was 7.9 µM.

Take `COc1ccc2nccc(NC(=O)C3(OC)CCN(CC(O)c4ccc5c(c4)OCCO5)CC3)c2n1` (stereo not given): the IC50 was 0.5 µM.

On to `Cc1sc(C)c(C(F)(F)F)c1CNCCCNc1cc(=O)c2ccccc2[nH]1`, for which the half-maximal inhibitory concentration (IC50) is 0.013 µM.

On to `CCOC(=O)c1cn[nH]c1S(=O)(=O)N1CCC1c1ccccc1` (stereo not given), for which the IC50 is 0.79 µM.

With `CCN(Cc1ccncc1)Cc1ccc(NC(=O)c2cc(-c3ccc(F)cc3)n[nH]2)cc1`, the IC50 is > 40 µM (inactive).

In the case of `Cc1cc2cncn2c(C2CCCCN2C(=O)c2cccs2)n1` (stereo not given), the IC50 is > 40 µM (inactive).

`CC(C)(C)Nc1nc(-c2ccccn2)nc2ccccc12`: the 50% inhibitory concentration (IC50) was 6.3 µM.

As to `Nc1nc(-c2ccccc2)cc(-c2nc3ncccc3[nH]2)n1`, the IC50 is 16 µM.

As for `Nc1nccc(-c2csc(Nc3ccc(Cl)cc3)n2)n1`, the IC50 was > 40 µM (inactive).

Regarding `N#Cc1ccc(S(=O)(=O)N2CCC3(CCN(c4ccccc4)C3=O)CC2)cc1`, the IC50 is > 40 µM (inactive).

On to `O=C(c1cnn(-c2ccccc2)n1)N1CCCC(n2ccnc2)C1` (stereo not given), for which the 50% inhibitory concentration (IC50) was 32 µM.

In the case of `O=C(Nc1ccc(Br)cn1)c1ccc(Cn2cnc([N+](=O)[O-])n2)cc1`, the half-maximal inhibitory concentration (IC50) was 3.2 µM.

For the molecule `CS(=O)(=O)c1ccccc1C(=O)N(Cc1ccccc1)c1ccccc1`, the half-maximal inhibitory concentration (IC50) is 0.63 µM.

For the molecule `CCC1Oc2cc(S(=O)(=O)N(C)CC(=O)N3CCc4ccccc4C3)c(C)cc2NC1=O` (stereo not given), the half-inhibitory concentration (IC50) was 32 µM.

As for `CNc1cncc(C2CCCN2C(=O)Cc2coc3cc(C)ccc23)n1` (stereo not given), the IC50 was > 40 µM (inactive).

For the molecule `COc1ccc(S(=O)(=O)Nc2ccc(C(=O)Nc3nc(-c4ccccn4)cs3)cc2)cc1`, the IC50 was 0.63 µM.

As to `c1ccc(CCNCc2cncc3nc(-c4cnccn4)n(C4CCCCC4)c23)cc1`, the IC50 was > 40 µM (inactive).

Consider `O=C1CN(C(=O)c2cccc(Nc3ncc(-c4ccc5c(c4)OCO5)cn3)c2)CCN1`, for which the IC50 is > 50 µM (inactive).

As to `Cc1[nH]nc2c1C(c1ccc(OCc3ccccc3F)cc1)SCC(=O)N2` (stereo not given), the IC50 was > 40 µM (inactive).

As for `CCCc1cc(C(=O)Nc2ncc(-c3cccc(Br)c3)n2C)n[nH]1`, the IC50 was 1.3 µM.

With `c1ccc(Nc2nc3ccccc3[nH]2)nc1`, the IC50 is 25 µM.

Consider `O=[N+]([O-])c1ccc(C2=CC(c3ccccc3)=NCCN2)cc1`, for which the IC50 was > 13 µM (inactive).

Regarding `COc1cc(-c2noc(CC#N)n2)ccc1OC(F)F`, the half-maximal inhibitory concentration (IC50) was 0.63 µM.

Take `O=C(NCC(c1cccnc1)N1CCc2ccccc2C1)C(=O)Nc1cccc(Cl)c1` (stereo not given): the IC50 was 20 µM.

Regarding `CS(=O)(=O)c1cccc(-c2cnc(N)c3c(-c4ccc(CO)cc4)csc23)c1`, the half-inhibitory concentration (IC50) is 5 µM.

`CN(C)CCN(C)Cc1ccc(Cl)cc1NS(=O)(=O)c1ccc(Cl)c(Cl)c1`: the 50% inhibitory concentration (IC50) was 4 µM.

Regarding `O=C(c1cc2cc(Cl)ccc2[nH]1)N1CCCCC1c1cccnc1` (stereo not given), the IC50 was 16 µM.

In the case of `Cc1nn(-c2nc(N)nc(-c3ccccn3)n2)c(C)c1Cc1ccccc1`, the IC50 is 6.3 µM.

Take `CN1CCN(c2nc(-c3ccc(Cl)cc3)c3c(N)n(C)nc3n2)CC1`: the IC50 is 32 µM.

As to `CCc1nn(-c2ncc(F)c(NC(C)C)n2)c(N)c1C1CCCCC1`, the IC50 was 16 µM.

With `COc1ccc2ncc(=O)n(CCN3CC[C@H](NCc4ncc(Cl)c5[nH]ncc45)[C@H](O)C3)c2n1`, the concentration for half-maximal inhibition (IC50) is 0.5 µM.

Take `Oc1c(-c2n[nH]c(CCc3ccccc3)n2)ncc2cccnc12`: the IC50 was 1.6 µM.

Take `COCc1cc(Nc2ccccc2)nc(-c2ccccn2)n1`: the IC50 is > 40 µM (inactive).

In the case of `COc1ccc(-c2ccc3nnc(-c4ccc(O)c(OC)c4)n3c2)cn1`, the IC50 was 2.5 µM.

On to `Cc1c([N+](=O)[O-])c(C(=O)Nc2sc3c(c2C#N)CCC(C)C3)nn1C` (stereo not given), for which the IC50 was > 40 µM (inactive).

Consider `NS(=O)(=O)c1ccc(CNC(=O)c2ccc([N+](=O)[O-])s2)cc1`, for which the concentration for half-maximal inhibition (IC50) is 0.25 µM.

As to `O=C(NCCc1csc(-c2cccc(F)c2)n1)c1ccco1`, the IC50 is 0.63 µM.

For `Fc1ccccc1N1C[C@H]2CCN(c3cccnc3)C[C@H]2C1`, the IC50 was > 40 µM (inactive).
